# Measurements from patent publication US11655243B2, “Pyridine and pyrazine derivatives as preferential cannabinoid 2 agonists” (HOFFMANN-LA ROCHE INC., priority 2018, dated 2023).
# Target: human CNR2 receptors (CB2 receptor) (Homo sapiens (Human), UniProt P34972)
# Experiment: Radioligand binding assay, human CB2 (CNR2)
# Conditions: not given
# Procedure: Radioligand Binding Assay
# The affinity of the compounds of the invention for cannabinoid CB1 receptors was determined using recommended amounts of membrane preparations (PerkinElmer) of human embryonic kidney (HEK) cells expressing the human CNR1 or CNR2 receptors in conjunction with 1.5 or 2.6 nM [3H]-CP-55,940 (Perkin Elmer) as radioligand, respectively. Binding was performed in binding buffer (50 mM Tris, 5 mM MgCl2, 2.5 mM EDTA, and 0.5% (wt/vol) fatty acid free BSA, pH 7.4 for CB1 receptor and 50 mM Tris, 5 mM MgCl2, 2.5 mM EGTA, and 0.1% (wt/vol) fatty acid free BSA, pH 7.4 for CB2 receptor) in a total volume of 0.2 ml for 1 h at 30° C. shaking. The reaction was terminated by rapid filtration through microfiltration plates coated with 0.5% polyethylenimine (UniFilter GFB filter plate; Packard). Bound radioactivity was analyzed for Ki using nonlinear regression analysis (Activity Base, ID Business Solution, Limited), with the Kd values for [3H]CP55,940 determined from saturation experiments. The compounds of formula (I) show an excellent affinity for the CB2 receptor.
# The compounds according to formula (I) have an activity in the above assay (Ki) between 0.5 nM and 10 μM. Particular compounds of formula (I) have an activity in the above assay (Ki) between 0.5 nM and 3 μM. Other particular compounds of formula (I) have an activity in the above assay (Ki) between 0.5 nM and 100 nM.
# Chain of human CNR2 receptors (CB2 receptor) (P34972 whole entry): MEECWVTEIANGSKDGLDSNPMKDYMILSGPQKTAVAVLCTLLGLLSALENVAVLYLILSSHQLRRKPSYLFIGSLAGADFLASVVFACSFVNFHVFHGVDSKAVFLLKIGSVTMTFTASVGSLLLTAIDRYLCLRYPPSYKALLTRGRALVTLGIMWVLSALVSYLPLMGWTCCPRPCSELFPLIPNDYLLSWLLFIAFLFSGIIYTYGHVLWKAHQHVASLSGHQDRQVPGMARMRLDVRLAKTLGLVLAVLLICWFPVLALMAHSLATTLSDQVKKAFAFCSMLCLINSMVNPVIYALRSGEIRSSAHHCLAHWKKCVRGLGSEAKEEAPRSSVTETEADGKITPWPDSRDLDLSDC
row,Structure (SMILES),Ki
1,"CCC(CC)(NC(=O)c1ccc(N2CC(OS(=O)(=O)c3ccc(C)cc3)C2)c(OC[C@H]2C[C@@H]2CO)n1)C(=O)OCCCF (racemic) [Example 31, (Rac)-trans-3-fluoropropyl 2-ethyl-2-[[6-[[-2-(hydroxymethyl)cyclopropyl]methoxy]-5-[3-(p-tolylsulfonyloxy)azetidin-1-yl]pyridine-2-carbonyl]amino]butanoate]",11.7 nM

# Same assay, conditions: membranes of HEK cells expressing human CNR2, 2.6 nM [3H]-CP-55,940 radioligand; read-out: Binding assay human CB2 Ki
row,Structure (SMILES),Ki
1,"CCOC(=O)C(CC)(CC)NC(=O)c1ccc(N2CC(OC)C2)c(OC[C@H]2C[C@@H]2CF)n1 (mixture of isomers) [Example 3, Ethyl 2-ethyl-2-{[6-{[(1S,2S)-2-(fluoromethyl)cyclopropyl]methoxy}-5-(3-methoxyazetidin-1-yl)pyridine-2-carbonyl]amino}butanoate and ethyl 2-ethyl-2-{[6-{[(1R,R)-2-(fluoromethyl)cyclopropyl]methoxy}-5-(3-methoxyazetidin-1-yl)pyridine-2-carbonyl]amino}butanoate]",0.5 nM
2,"CCC(CC)(NC(=O)c1ccc(N2CC(OC)C2)c(OC[C@H]2C[C@@H]2COCc2ccccc2)n1)C(=O)OCCCF [Example 32, 3-Fluoropropyl 2-[[6-[[(1S,2S)-2-(benzyloxymethyl)cyclopropyl]methoxy]-5-(3-methoxyazetidin-1-yl)pyridine-2-carbonyl]amino]-2-ethyl-butanoate]",246 nM
3,"CC(C)C[C@@H](COCCF)NC(=O)c1ccc(N2CCCC2)c(OCC2COC2)n1 [Example 18, N-[(2S)-1-(2-Fluoroethoxy)-4-methylpentan-2-yl]-6-[(oxetan-3-yl)methoxy]-5-(pyrrolidin-1-yl)pyridine-2-carboxamide]",21 nM
4,"CCC(CC)(NC(=O)c1ccc(N2CC(F)C2)c(OC[C@H]2C[C@@H]2CO)n1)C(=O)N[C@H](CO)CC(C)C (single isomer, unassigned) [Example 28, N-[1-Ethyl-1-[[(1S)-1-(hydroxymethyl)-3-methyl-butyl]carbamoyl]propyl]-5-(3-fluoroazetidin-1-yl)-6-[[(1S,2S)-2-(hydroxymethyl)cyclopropyl]methoxy]pyridine-2-carboxamide or N-[1-ethyl-1-[[(1S)-1-(hydroxymethyl)-3-methyl-butyl]carbamoyl]propyl]-5-(3-fluoroazetidin-1-yl)-6-[[(1R,2R)-2-(hydroxymethyl)cyclopropyl]methoxy]pyridine-2-carboxamide]",3940 nM
5,"CCOC(=O)C(CC)(CC)NC(=O)c1ccc(N2CC(OC)C2)c(OCC(C)(C)COCF)n1 [Example 8, Ethyl 2-ethyl-2-({6-[3-(fluoromethoxy)-2,2-dimethylpropoxy]-5-(3-methoxyazetidin-1-yl)pyridine-2-carbonyl}amino)butanoate]",143 nM
6,"CCC(CC)(NC(=O)c1ccc(N2CC(OC)C2)c(OC[C@@H]2C[C@H]2CO)n1)C(=O)OCCF [Example 14, (−)-trans-2-Fluoroethyl 2-ethyl-2-{[6-{[-2-(hydroxymethyl)cyclopropyl]methoxy}-5-(3-methoxyazetidin-1-yl)pyridine-2-carbonyl]amino}butanoate]",11.4 nM
7,"CCOC(=O)C(CC)(CC)NC(=O)c1ccc(N2CC(OC)C2)c(OC[C@@H]2C[C@H]2COCF)n1 [Example 10, (−)-trans-Ethyl 2-ethyl-2-{[6-({-2-[(fluoromethoxy)methyl]cyclopropyl}methoxy)-5-(3-methoxyazetidin-1-yl)pyridine-2-carbonyl]amino}butanoate]",8.2 nM
8,"CCC(CC)(NC(=O)c1ccc(N2CC(F)C2)c(OC[C@@H]2C[C@H]2CO)n1)C(=O)OCCCF (single isomer, unassigned) [Example 29, 3-Fluoropropyl 2-ethyl-2-{[5-(3-fluoroazetidin-1-yl)-6-{[(1R,2R)-2-(hydroxymethyl)cyclopropyl]methoxy}pyridin-2-yl]formamido}butanoate or 3-fluoropropyl 2-ethyl-2-{[5-(3-fluoroazetidin-1-yl)-6-{[(1S,2S)-2-(hydroxymethyl)cyclopropyl]methoxy}pyridin-2-yl]formamido}butanoate]",10.9 nM
9,"CCC(CC)(NC(=O)c1ccc(N2CC(OC)C2)c(OC[C@H]2C[C@@H]2CO)n1)C(=O)N[C@H](CO)CC(C)C [Example 26, N-[1-Ethyl-1-[[(1S)-1-(hydroxymethyl)-3-methyl-butyl]carbamoyl]propyl]-6-[[(1S,2S)-2-(hydroxymethyl)cyclopropyl]methoxy]-5-(3-methoxyazetidin-1-yl)pyridine-2-carboxamide]",130 nM
10,"CCC(CC)(NC(=O)c1ccc(N2CCCC2)c(OCC2(CO)COC2)n1)C(=O)OCCF [Example 34, 2-Fluoroethyl 2-ethyl-2-(6-((3-(hydroxymethyl)oxetan-3-yl)methoxy)-5-(pyrrolidin-1-yl)picolinamide)butanoate]",607 nM
11,"CCC(CC)(NC(=O)c1ccc(N2CC(OC)C2)c(OC[C@@H]2C[C@H]2CO)n1)C(=O)OCCCF [Example 16, 3-Fluoropropyl 2-ethyl-2-{[6-{[(1R,2R)-2-(hydroxymethyl)cyclopropyl]methoxy}-5-(3-methoxyazetidin-1-yl)pyridine-2-carbonyl]amino}butanoate]",18.8 nM
12,"CCC(CC)(NC(=O)c1ccc(N2CC(OC)C2)c(OC[C@@H]2C[C@H]2CO)n1)C(=O)OCF [Example 11, (−)-trans-Fluoromethyl 2-ethyl-2-{[6-{[(1R,2R)-2-(hydroxymethyl)cyclopropyl]methoxy}-5-(3-methoxyazetidin-1-yl)pyridine-2-carbonyl]amino}butanoate]",9.7 nM
13,"CCOC(=O)C(CC)(CC)NC(=O)c1ccc(N2CC(OC)C2)c(OC[C@H]2C[C@@H]2COCF)n1 (stereo in doubt) [Example 9, (+)-trans-Ethyl 2-ethyl-2-{[6-({-2-[(fluoromethoxy)methyl]cyclopropyl}methoxy)-5-(3-methoxyazetidin-1-yl)pyridine-2-carbonyl]amino}butanoate]",0.2 nM
14,"CCC(CC)(NC(=O)c1ccc(N2CC(OC)C2)c(OC[C@H]2C[C@@H]2CO)n1)C(=O)OCCCOS(=O)(=O)c1ccc(C)cc1 [Example 23, 3-(p-Tolylsulfonyloxy)propyl 2-ethyl-2-[[6-[[(1S,2S)-2-(hydroxymethyl)cyclopropyl]methoxy]-5-(3-methoxyazetidin-1-yl)pyridine-2-carbonyl]amino]butanoate]",21.6 nM
15,"CCOC(=O)C(CC)(CC)NC(=O)c1ccc(N2CC(OC)C2)c(OC[C@@H]2C[C@@H]2CF)n1 (mixture of isomers) [Example 4, Ethyl 2-ethyl-2-{[6-{[(1R,2S)-2-(fluoromethyl)cyclopropyl]methoxy}-5-(3-methoxyazetidin-1-yl)pyridine-2-carbonyl]amino}butanoate and ethyl 2-ethyl-2-{[6-{[(1S,2R)-2-(fluoromethyl)cyclopropyl]methoxy}-5-(3-methoxyazetidin-1-yl)pyridine-2-carbonyl]amino}butanoate]",0.7 nM
16,"CCC(CC)(NC(=O)c1ccc(N2CC(F)C2)c(OC[C@H]2C[C@@H]2CO)n1)C(=O)OCCCF (single isomer, unassigned) [Example 30, 3-Fluoropropyl 2-ethyl-2-{[5-(3-fluoroazetidin-1-yl)-6-{[(1S,2S)-2-(hydroxymethyl)cyclopropyl]methoxy}pyridin-2-yl]formamido}butanoate or 3-fluoropropyl 2-ethyl-2-{[5-(3-fluoroazetidin-1-yl)-6-{[(1R,2R)-2-(hydroxymethyl)cyclopropyl]methoxy}pyridin-2-yl]formamido}butanoate]",1.7 nM
17,"COC1CN(c2ccc(C(=O)N[C@H](COCCF)CC(C)C)nc2OCC2COC2)C1 [Example 17, N-[(2S)-1-(2-Fluoroethoxy)-4-methylpentan-2-yl]-5-(3-methoxyazetidin-1-yl)-6-[(oxetan-3-yl)methoxy]pyridine-2-carboxamide]",331 nM
18,"[2H]C([2H])(F)C([2H])([2H])C([2H])([2H])OC(=O)C(CC)(CC)NC(=O)c1ccc(N2CC(OC)C2)c(OC[C@H]2C[C@@H]2CO)n1 [Example 19, (1,1,2,2,3,3-Hexadeuterio-3-fluoro-propyl) 2-ethyl-2-[[6-[[(1S,2S)-2-(hydroxymethyl)cyclopropyl]methoxy]-5-(3-methoxyazetidin-1-yl)pyridine-2-carbonyl]amino]butanoate]",0.8 nM
19,"CCOC(=O)C(CC)(CC)NC(=O)c1ccc(N2CC(OC)C2)c(OC[C@@H]2C[C@@H]2COCCF)n1 (mixture of isomers) [Example 6, Ethyl 2-ethyl-2-{[6-({(1R,2S)-2-[(2-fluoroethoxy)methyl]cyclopropyl}methoxy)-5-(3-methoxyazetidin-1-yl)pyridine-2-carbonyl]amino}butanoate and ethyl 2-ethyl-2-{[6-({(1S,2R)-2-[(2-fluoroethoxy)methyl]cyclopropyl}methoxy)-5-(3-methoxyazetidin-1-yl)pyridine-2-carbonyl]amino}butanoate]",13 nM
20,"CCC(CC)(NC(=O)c1ccc(N2CCCC2)c(OCC2(CO)COC2)n1)C(=O)OCCCF [Example 35, 3-Fluoropropyl 2-ethyl-2-(6-((3-(hydroxymethyl)oxetan-3-yl)methoxy)-5-(pyrrolidin-1-yl)picolinamido)butanoate]",1390 nM
